Source: patent US20240262842A1, “SMALL MOLECULE INHIBITORS OF KRAS G12C MUTANT” (Merck Sharp & Dohme LLC, priority 2021, published 2024)

How the values were obtained:
[1] = target: T1, interaction between GMPPNP-bound recombinant K-Ras4B G12C mutant protein and cRAF RAS-binding domain (cRAF-RBD) (Homo sapiens, UniProt P01116, G12C); assay: Inhibitory activity on interaction between KRAS G12C and cRAF (Alpha technology); conditions: GMPPNP-bound KRAS G12C incubated with compound 25° C. 1 hour; Table 2-1; read-out: IC50
T1 construct: His-tag (N)
T1 sequence (P01116 with tags, fused parts or gaps isoform P01116-2 G12C): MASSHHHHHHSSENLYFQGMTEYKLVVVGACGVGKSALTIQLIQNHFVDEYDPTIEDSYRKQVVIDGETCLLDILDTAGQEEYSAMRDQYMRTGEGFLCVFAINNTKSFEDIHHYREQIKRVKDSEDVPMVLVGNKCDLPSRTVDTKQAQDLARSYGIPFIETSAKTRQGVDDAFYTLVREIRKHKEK
Method in brief: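 Alpha signal measured 1.5 h after adding cRAF-RBD (aa 50-132) and detection reagents to GMPPNP-bound KRAS G12C (aa 1-169) pretreated 1 h at 25° C with compound (pH 7.5 buffer). 0% inhibition = DMSO, 100% = GDP-loaded KRAS; IC50 by curve fit.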

MIA PaCa-2 cells = assay: Growth inhibition activity on KRAS-G12C mutant cell line (CellTiter-Glo 3D); type: cell-based, human; conditions: Homo sapiens, MIA PaCa-2, 72 h, MIA PaCa-2, 3-day culture with compound; Table 3-1
Method in brief: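 IC50 (nM) derived from inhibition of luminescence (CellTiter-Glo 3D) relative to compound-free wells. Cells were seeded in U-bottom plates, grown 1 day, then exposed to compound for 3 days at 37 °C with 0.2% final DMSO.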

For `COCc1nc2c3c(c(C(F)(F)F)cc2n1C)-c1cccn2c(C(=O)c4cc(F)c(NC(=O)/C=C/CN[C@H]5CCOC5)c(F)c4)cc(c12)COC3` [Example 209, (S,E)-N-(2,6-difluoro-4-(10-(methoxymethyl)-9-methyl-7-(trifluoromethyl)-9,12-dihydro-14H-imidazo[4″,5″:3′,4′]benzo[1′,2′:6,7]oxocino[5,4,3-hi]indolizine-2-carbonyl)phenyl)-4-((tetrahydrofuran-3-yl)amino)but-2-enamide], the IC50 [1] was 46.9 nM and the IC50 (MIA PaCa-2 cells) was 18.7 nM.
`COc1cc(N2CCCC2=O)cc2c1-c1cccn3c(C(=O)c4cc(F)c(NC(=O)/C=C/CNC5(C)CC5)c(F)c4)cc(c13)CCO2` [Example 210] was tested, and the IC50 [1] was 38.1 nM and the IC50 (MIA PaCa-2 cells) was 60.3 nM.
`C[C@@H](O)[C@@H]1CCCN1C/C=C/C(=O)Nc1c(F)cc(C(=O)c2cc3c4c(cccn24)-c2c(C(F)(F)F)cc4c(ncn4C)c2N(C)CC3)cc1F` [Example 211, (E)-N-(4-(9,12-dimethyl-7-(trifluoromethyl)-9,12,13,14-tetrahydro-imidazo[4″,5″:5′,6′]benzo-[1′,2′:2,3]azocino[4,5,6-hi]indolizine-2-carbonyl)-2,6-difluorophenyl)-4-((S)-2-((R)-1-hydroxy-ethyl)pyrrolidin-1-yl)but-2-enamide] showed an IC50 [1] of 51.9 nM and an IC50 (MIA PaCa-2 cells) of 10.8 nM.
For `Cn1cnc2c3c(c(C(F)(F)F)cc21)-c1cccn2c(C(=O)c4cc(F)c(NC(=O)/C=C/CN5C6COCC5C6)c(F)c4)cc(c12)CCO3` [Example 212, (E)-4-(3-oxa-6-azabicyclo-[3.1.1]heptan-6-yl)-N-(2,6-difluoro-4-(9-meth-yl-7-(trifluoromethyl)-13,14-dihydro-9H-imidazo-[4″,5″:5′,6′]benzo[1′,2′: 2,3]oxocino[4,5,6-hi]-indolizine-2-carbonyl)-phenyl)but-2-enamide], the IC50 [1] was 16.3 nM and the IC50 (MIA PaCa-2 cells) was 4.16 nM.
For `Cn1cnc2c3c(c(C(F)(F)F)cc21)-c1cccn2c(C(=O)c4cc(F)c(NC(=O)/C=C/CN5C[C@H]6COC[C@H]6C5)c(F)c4)cc(c12)CCO3` [Example 213, (E)-N-(2,6-difluoro-4-(9-methyl-7-(trifluorometh-yl)-13,14-dihydro-9H-imidazo[4″,5″:5′,6′]benzo-[1′,2′:2,3]oxocino[4,5,6-hi]indolizine-2-carbonyl)-phenyl)-4-((3aR,6aS)-tetrahydro-1H-furo[3,4-c]pyrrol-5(3H)-yl)but-2-enamide], the IC50 [1] was 62.1 nM and the IC50 (MIA PaCa-2 cells) was 25.3 nM.
For `CN1CCc2cc(C(=O)c3cc(F)c(NC(=O)/C=C/CNC4(C)CC4)c(F)c3)n3cccc(c23)-c2c(C(F)(F)F)cc3c(ncn3C)c21` [Example 214, (E)-N-(4-(9.12-dimethyl-7-(trifluoromethyl)-9,12,13,14-tetrahydro-imidazo[4″,5″:5′,6′]benzo-[1′,2′:2,3]azocino[4,5,6-hi]indolizine-2-carbonyl)-2,6-difluorophenyl)-4-((1-methylcyclopropyl)amino)-but-2-enamide], the IC50 [1] was 11.5 nM and the IC50 (MIA PaCa-2 cells) was 1.1 nM.
`COCCn1cnc2c3c(c(C(F)(F)F)cc21)-c1cccn2c(C(=O)c4cc(F)c(NC(=O)C=CCNC5(C)CC5)c(F)c4)cc(c12)CCN3C` [Example 215, (E)-N-(2,6-difluoro-4-(9-(2-methoxyethyl)-12-methyl-7-(trifluoromethyl)-9,12,13,14-tetrahydroimidazo[4″,5″:5′,6′]benzo[1′,2′:2,3]azocino[4,5,6-hi]indolizine-2-carbonyl)phenyl)-4-((1-methylcyclopropyl)amino)but-2-enamide] was tested, and the IC50 [1] was 18.3 nM and the IC50 (MIA PaCa-2 cells) was 3.4 nM.
Work on `Cc1nnc2c3c(c(C(F)(F)F)cn12)-c1cccn2c(C(=O)c4cc(F)c(NC(=O)/C=C/CN[C@H]5CCOC5)c(F)c4)cc(c12)CCN3C` [Example 217, (S,E)-N-(4-(10,13-dimethyl-7-(trifluoromethyl)-14,15-dihydro-13H-[1,2,4]triazolo[4″,3″:1′,2′]pyrido[3′,4′:2,3]azocino[4,5,6-hi]indolizine-2-carbonyl)-2,6-difluorophenyl)-4-((tetrahydrofuran-3-yl)amino)but-2-enamide] yielded an IC50 [1] of 19.7 nM and an IC50 (MIA PaCa-2 cells) of 6.22 nM.
In the case of `C[C@H](O)[C@@H]1CCCN1C/C=C/C(=O)Nc1c(F)cc(C(=O)c2cc3c4c(cccn24)-c2c(C(F)(F)F)cc4c(ncn4C)c2N(C)CC3)cc1F` [Example 219, (E)-N-(4-(9,12-dimethyl-7-(trifluoromethyl)-9,12,13,14-tetrahydro-imidazo[4″,5″:5′,6′]benzo-[1′,2′:2,3]azocino[4,5,6-hi]indolizine-2-carbonyl)-2,6-difluorophenyl)-4-((S)-2-((S)-1-hydroxy-ethyl)pyrrolidin-1-yl)but-2-enamide], the IC50 [1] is reported as 38.5 nM and the IC50 (MIA PaCa-2 cells) is reported as 12.6 nM.
`Cn1cnc2c3c(c(C(F)(F)F)cc21)-c1cccn2c(C(=O)c4cc(F)c(NC(=O)/C=C/CN5CC6CCC5CO6)c(F)c4)cc(c12)CCO3` (stereo not drawn) [Example 220, (E)-4-(2-oxa-5-aza-bicyclo[2.2.2]octan-5-yl)-N-(2,6-difluoro-4-(9-methyl-7-(trifluorometh-yl)-13,14-dihydro-9H-imidazo[4″,5″:5′,6′]benzo-[1′,2′:2,3]oxocino[4,5,6-hi]indolizine-2-carbonyl)-phenyl)but-2-enamide] was tested, and the IC50 [1] was 24.4 nM and the IC50 (MIA PaCa-2 cells) was 6.52 nM.
In the case of `Cn1cnc2c3c(c(C(F)(F)F)cc21)-c1cccn2c(C(=O)c4cc(F)c(NC(=O)/C=C/CN5C6CCCC5COC6)c(F)c4)cc(c12)CCO3` [Example 221, (E)-4-(3-oxa-9-azabicyclo-[3.3.1]nonan-9-yl)-N-(2,6-difluoro-4-(9-methyl-7-(trifluoromethyl)-13,14-dihydro-9H-imidazo[4″,5″: 5′,6′]benzo[1′,2′:2,3]oxo-cino[4,5,6-hi]indolizine-2-carbonyl)phenyl)but-2-enamide], the IC50 [1] is reported as 39.2 nM and the IC50 (MIA PaCa-2 cells) is reported as 20.9 nM.
`Cn1cnc2c3c(c(C(F)(F)F)cc21)-c1cccn2c(C(=O)c4cc(F)c(NC(=O)/C=C/CN5CCCC[C@H]5CO)c(F)c4)cc(c12)CCO3` [Example 222, (S,E)-N-(2,6-difluoro-4-(9-methyl-7-(trifluoro-methyl)-13,14-dihydro-9H-imidazo[4″,5″:5′,6′]-benzo[1′,2′:2,3]oxocino-[4,5,6-hi]indolizine-2-carbonyl)phenyl)-4-(2-(hydroxymethyl)piperidin-1-yl)but-2-enamide] was tested, and the IC50 [1] was 75.8 nM and the IC50 (MIA PaCa-2 cells) was 1940 nM.
For `COCc1nc2c3c(c(C(F)F)cc2n1C)-c1cccn2c(C(=O)c4cc(F)c(NC(=O)/C=C/CNC5(C)COC5)c(F)c4)cc(c12)CCN3C` [Example 224, (E)-N-(4-(7-(difluoromethyl)-10-(methoxymethyl)-9,12-dimethyl-9,12,13,14-tetrahydroimidazo[4″,5″:5′,6′]benzo[1′,2′:2,3]azocino[4,5,6-hi]indolizine-2-carbonyl)-2,6-difluorophenyl)-4-((3-methyloxetan-3-yl)amino)but-2-enamide], the IC50 [1] was 28.2 nM and the IC50 (MIA PaCa-2 cells) was 17.8 nM.
`COc1cc2c(nc(C)n2C)c2c1-c1cccn3c(C(=O)c4cc(F)c(NC(=O)/C=C/CNC5(C)CC5)c(F)c4)cc(c13)CCS2` [Example 225, (E)-N-(2,6-difluoro-4-(7-methoxy-9,10-dimethyl-13,14-dihydro-9H-imidazo[4″,5″:5′,6′]benzo-[1′,2′:2,3]thiocino[4,5,6-hi]indolizine-2-carbonyl)-phenyl)-4-((1-methyl-cyclopropyl)amino)but-2-enamide] showed an IC50 [1] of 10.1 nM and an IC50 (MIA PaCa-2 cells) of 7.18 nM.
Work on `CN1CCc2cc(C(=O)c3cc(F)c(NC(=O)/C=C/CN4CCCC4)c(F)c3)n3cccc(c23)-c2c(C(F)(F)F)cc3c(ncn3C)c21` [Example 226, (E)-N-(4-(9,12-dimethyl-7-(trifluoromethyl)-9,12,13,14-tetrahydro-imidazo[4″,5″:5′,6′]benzo-[1′,2′:2,3]azocino[4,5,6-hi]indolizine-2-carbonyl)-2,6-difluorophenyl)-4-(pyrrolidin-1-yl)but-2-enamide] yielded an IC50 [1] of 63.3 nM and an IC50 (MIA PaCa-2 cells) of 13.5 nM.
For `CN1CCc2cc(C(=O)c3cc(F)c(NC(=O)/C=C/CN4CCC[C@H]4CO)c(F)c3)n3cccc(c23)-c2c(C(F)(F)F)cc3c(ncn3C)c21` [Example 227, (S,E)-N-(4-(9,12-dimeth-yl-7-(trifluoromethyl)-9,12,13,14-tetrahydro-imidazo[4″,5″:5′,6′]benzo-[1′,2′:2,3]azocino[4,5,6-hi]indolizine-2-carbonyl)-2,6-difluorophenyl)-4-(2-(hydroxymethyl)pyrrol-idin-1-yl)but-2-enamide], the IC50 [1] was 34 nM and the IC50 (MIA PaCa-2 cells) was 10.2 nM.
`Cn1cnc2c3c(c(C(F)(F)F)cc21)-c1cccn2c(C(=O)c4cc(F)c(NC(=O)/C=C/CN5CC6COC(C6)C5)c(F)c4)cc(c12)CCO3` (stereo not drawn) [Example 228, (E)-4-(6-oxa-3-azabicyclo-[3.2.1]octan-3-yl)-N-(2,6-difluoro-4-(9-methyl-7-(trifluoromethyl)-13,14-dihydro-9H-imidazo-[4″,5″:5′,6′]benzo[1′,2′: 2,3]oxocino[4,5,6-hi]-indolizine-2-carbonyl)-phenyl)but-2-enamide] showed an IC50 [1] of 32.5 nM and an IC50 (MIA PaCa-2 cells) of 35.8 nM.
`Cn1cnc2c3c(c(C(F)(F)F)cc21)-c1cccn2c(C(=O)c4cc(F)c(NC(=O)/C=C/CN5CC6CC5CCO6)c(F)c4)cc(c12)CCO3` (stereo not drawn) [Example 229, (E)-4-(2-oxa-6-azabicyclo-[3.2.1]octan-6-yl)-N-(2,6-difluoro-4-(9-methyl-7-(trifluoromethyl)-13,14-dihydro-9H-imidazo-[4″,5″:5′,6′]benzo[1′,2′: 2,3]oxocino[4,5,6-hi]-indolizine-2-carbonyl)-phenyl)but-2-enamide] gave an IC50 [1] of 12.7 nM and an IC50 (MIA PaCa-2 cells) of 11.3 nM.
